Earlier results as cited in publication PMC3010531 (Journal of the American Chemical Society, 2010).

Key:
mH2A1.1 = mH2A1.1 (Homo sapiens, UniProt O75367); settings: ref 13c
mH2A1.2 = mH2A1.2 (Homo sapiens, UniProt O75367); settings: splice-variant; ref 13c
mH2A1.1 (G224E) = mH2A1.1 (G224E) (Homo sapiens, UniProt O75367, G224E); settings: point-mutant; ref 13c
Chain of mH2A1.1 (G224E) (O75367 whole entry G224E, species assumed): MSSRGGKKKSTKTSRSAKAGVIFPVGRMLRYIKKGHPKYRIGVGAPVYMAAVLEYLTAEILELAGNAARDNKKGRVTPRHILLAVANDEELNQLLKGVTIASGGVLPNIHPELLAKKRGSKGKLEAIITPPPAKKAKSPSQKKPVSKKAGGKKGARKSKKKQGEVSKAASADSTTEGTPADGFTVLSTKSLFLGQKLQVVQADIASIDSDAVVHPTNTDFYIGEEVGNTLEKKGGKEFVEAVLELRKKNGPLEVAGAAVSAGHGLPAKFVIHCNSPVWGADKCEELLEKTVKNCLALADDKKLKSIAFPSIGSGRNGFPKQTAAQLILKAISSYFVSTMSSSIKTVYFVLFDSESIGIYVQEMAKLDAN

Chain of mH2A1.2 (O75367 162-372 isoform O75367-1): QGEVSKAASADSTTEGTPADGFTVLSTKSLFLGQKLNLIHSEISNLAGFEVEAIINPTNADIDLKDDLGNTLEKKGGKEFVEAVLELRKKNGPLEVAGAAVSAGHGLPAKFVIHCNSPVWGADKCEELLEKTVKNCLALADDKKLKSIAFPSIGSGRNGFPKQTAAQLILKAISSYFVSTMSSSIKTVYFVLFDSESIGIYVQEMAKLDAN
Chain of mH2A1.1 (O75367 184-367 limits assumed, species assumed): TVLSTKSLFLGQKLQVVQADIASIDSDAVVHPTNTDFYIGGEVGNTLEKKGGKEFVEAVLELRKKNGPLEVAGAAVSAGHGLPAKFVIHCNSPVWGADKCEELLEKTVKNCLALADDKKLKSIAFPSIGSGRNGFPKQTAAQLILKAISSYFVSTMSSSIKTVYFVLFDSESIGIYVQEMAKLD

Nc1ncnc2c1ncn2[C@@H]1O[C@H](COP(=O)(O)OP(=O)(O)OC[C@H]2OC(O)[C@H](O)[C@@H]2O)[C@@H](O)[C@H]1O (stereo partly drawn) [ADPR, ADP-ribose]
affinity of free ADPR for mH2A1.1 (mH2A1.1): modest, in the μM range
binding of ADPR by mH2A1.2 (mH2A1.2): does not bind ADPR
binding of ADPR by mH2A1.1 (G224E) (mH2A1.1 (G224E)): abolishes ADPR binding
